Measured values taken from the supplement of paper PMC10307832.

Legend:
Assay in all cases: relative viability (nuclei count vs DMSO), 5 days (fraction); higher = more cells survive
[1] = tested on: NCI-H596
Summary of the method: (§1)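 Values are medians from duplicate plates. Each reflects relative viability, defined as the nuclei count of treated wells over that of vehicle wells. Lung cancer cell lines in 1536-well plates were pin-tool dosed one day after seeding with one drug alone or with a fixed anchor-drug dose plus five library-drug doses (not always all listed) in √10 steps, then fixed, stained and imaged at 4× after 5 days.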

[2] = tested on: H3255
Summary of the method: as §1

[3] = tested on: NCI-H1650
Summary of the method: as §1

[4] = tested on: SK-LU-1
Summary of the method: as §1

[5] = tested on: NCI-H3122
Summary of the method: as §1

[6] = tested on: NCI-H322M
Summary of the method: as §1

[7] = tested on: NCI-H1755
Summary of the method: as §1

[8] = tested on: NCI-H23
Summary of the method: as §1

[9] = tested on: HCC-78
Summary of the method: as §1

[10] = tested on: NCI-H2087
Summary of the method: as §1

[11] = tested on: 201T
Summary of the method: as §1

[12] = tested on: NCI-H650
Summary of the method: as §1

[13] = tested on: NCI-H2085
Summary of the method: as §1

[14] = tested on: HCC-366
Summary of the method: as §1

[15] = tested on: LU99A
Summary of the method: as §1

[16] = tested on: COR-L23
Summary of the method: as §1

[17] = tested on: HARA
Summary of the method: as §1

[18] = tested on: NCI-H1651
Summary of the method: as §1

[19] = tested on: PC-3 [JPC-3]
Summary of the method: as §1

[20] = tested on: NCI-H460
Summary of the method: as §1

**Q.** For Cc1cn(-c2cc(NC(=O)c3ccc(C)c(Nc4nccc(-c5cccnc5)n4)c3)cc(C(F)(F)F)c2)cn1 [Nilotinib] + CC(C)C[C@H](NC(=O)[C@H](Cc1ccccc1)NC(=O)c1cnccn1)B(O)O [Bortezomib] (partner 0.002 µM), which relative viability ([1]; first compound 0.001 µM) is on record?
**A.** 1.16

**Q.** And the relative viability ([1]; first compound 0.003162 µM)?
**A.** 1.03

**Q.** And the relative viability ([1]; first compound 0.01 µM)?
**A.** 1.18

**Q.** What about the relative viability ([1]; first compound 0.03162 µM) of the same compound?
**A.** 1.21

**Q.** What about the relative viability ([1]; first compound 0.1 µM) of the same compound?
**A.** 0.96

**Q.** And the relative viability ([2]; first compound 0.001 µM)?
**A.** 0.917

**Q.** What about the relative viability ([2]; first compound 0.003162 µM) of the same compound?
**A.** 0.656

**Q.** And the relative viability ([2]; first compound 0.01 µM)?
**A.** 0.986

**Q.** What about the relative viability ([2]; first compound 0.03162 µM) of the same compound?
**A.** 0.787

**Q.** What about the relative viability ([2]; first compound 0.1 µM) of the same compound?
**A.** 0.558

**Q.** What about the relative viability ([3]; first compound 0.001 µM) of the same compound?
**A.** 0.2

**Q.** And the relative viability ([3]; first compound 0.003162 µM)?
**A.** 0.195

**Q.** What about the relative viability ([3]; first compound 0.01 µM) of the same compound?
**A.** 0.18

**Q.** What about the relative viability ([3]; first compound 0.03162 µM) of the same compound?
**A.** 0.196

**Q.** What about the relative viability ([3]; first compound 0.1 µM) of the same compound?
**A.** 0.197

**Q.** And the relative viability ([4]; first compound 0.001 µM)?
**A.** 1.29

**Q.** What about the relative viability ([4]; first compound 0.01 µM) of the same compound?
**A.** 0.831

**Q.** What about the relative viability ([4]; first compound 0.03162 µM) of the same compound?
**A.** 1

**Q.** And the relative viability ([4]; first compound 0.1 µM)?
**A.** 0.949

**Q.** What about the relative viability ([5]; first compound 0.003162 µM) of the same compound?
**A.** 1.05

**Q.** What about the relative viability ([5]; first compound 0.03162 µM) of the same compound?
**A.** 1.03

**Q.** What about the relative viability ([5]; first compound 0.1 µM) of the same compound?
**A.** 0.962

**Q.** And the relative viability ([6]; first compound 0.001 µM)?
**A.** 1.27

**Q.** What about the relative viability ([6]; first compound 0.003162 µM) of the same compound?
**A.** 1.47

**Q.** What about the relative viability ([6]; first compound 0.03162 µM) of the same compound?
**A.** 1.18

**Q.** And the relative viability ([6]; first compound 0.1 µM)?
**A.** 1.39

**Q.** And the relative viability ([7]; first compound 0.001 µM)?
**A.** 1

**Q.** What about the relative viability ([7]; first compound 0.003162 µM) of the same compound?
**A.** 1.16

**Q.** What about the relative viability ([7]; first compound 0.01 µM) of the same compound?
**A.** 1.15

**Q.** What about the relative viability ([7]; first compound 0.03162 µM) of the same compound?
**A.** 0.81

**Q.** And the relative viability ([7]; first compound 0.1 µM)?
**A.** 0.929

**Q.** And the relative viability ([8]; first compound 0.001 µM)?
**A.** 1.07

**Q.** What about the relative viability ([8]; first compound 0.003162 µM) of the same compound?
**A.** 1.37

**Q.** What about the relative viability ([8]; first compound 0.01 µM) of the same compound?
**A.** 1.4

**Q.** And the relative viability ([8]; first compound 0.03162 µM)?
**A.** 0.73

**Q.** And the relative viability ([8]; first compound 0.1 µM)?
**A.** 0.775

**Q.** What about the relative viability ([9]; first compound 0.001 µM) of the same compound?
**A.** 0.433

**Q.** And the relative viability ([9]; first compound 0.003162 µM)?
**A.** 0.514

**Q.** What about the relative viability ([9]; first compound 0.01 µM) of the same compound?
**A.** 0.654

**Q.** What about the relative viability ([9]; first compound 0.03162 µM) of the same compound?
**A.** 0.55

**Q.** What about the relative viability ([9]; first compound 0.1 µM) of the same compound?
**A.** 0.518

**Q.** What about the relative viability ([10]; first compound 0.001 µM) of the same compound?
**A.** 0.693

**Q.** And the relative viability ([10]; first compound 0.003162 µM)?
**A.** 1.03

**Q.** And the relative viability ([10]; first compound 0.01 µM)?
**A.** 0.762

**Q.** And the relative viability ([10]; first compound 0.03162 µM)?
**A.** 0.68

**Q.** And the relative viability ([10]; first compound 0.1 µM)?
**A.** 0.296

**Q.** What about the relative viability ([11]; first compound 0.001 µM) of the same compound?
**A.** 1.12

**Q.** And the relative viability ([11]; first compound 0.003162 µM)?
**A.** 1.09

**Q.** What about the relative viability ([11]; first compound 0.01 µM) of the same compound?
**A.** 1.08

**Q.** And the relative viability ([11]; first compound 0.1 µM)?
**A.** 1.11

**Q.** What about the relative viability ([12]; first compound 0.001 µM) of the same compound?
**A.** 0.754

**Q.** What about the relative viability ([12]; first compound 0.003162 µM) of the same compound?
**A.** 0.76

**Q.** And the relative viability ([12]; first compound 0.01 µM)?
**A.** 0.923

**Q.** And the relative viability ([12]; first compound 0.03162 µM)?
**A.** 0.794

**Q.** What about the relative viability ([12]; first compound 0.1 µM) of the same compound?
**A.** 0.714

**Q.** And the relative viability ([13]; first compound 0.001 µM)?
**A.** 1.11

**Q.** And the relative viability ([13]; first compound 0.003162 µM)?
**A.** 1.11

**Q.** And the relative viability ([13]; first compound 0.01 µM)?
**A.** 1.27

**Q.** What about the relative viability ([13]; first compound 0.03162 µM) of the same compound?
**A.** 0.816

**Q.** And the relative viability ([13]; first compound 0.1 µM)?
**A.** 0.725

**Q.** And the relative viability ([14]; first compound 0.001 µM)?
**A.** 0.88

**Q.** What about the relative viability ([14]; first compound 0.003162 µM) of the same compound?
**A.** 1.74

**Q.** And the relative viability ([14]; first compound 0.01 µM)?
**A.** 1.35

**Q.** And the relative viability ([14]; first compound 0.03162 µM)?
**A.** 0.692

**Q.** And the relative viability ([14]; first compound 0.1 µM)?
**A.** 0.844

**Q.** And the relative viability ([15]; first compound 0.001 µM)?
**A.** 0.891

**Q.** What about the relative viability ([15]; first compound 0.003162 µM) of the same compound?
**A.** 1.1

**Q.** And the relative viability ([15]; first compound 0.01 µM)?
**A.** 1.39

**Q.** What about the relative viability ([15]; first compound 0.03162 µM) of the same compound?
**A.** 1.19

**Q.** What about the relative viability ([15]; first compound 0.1 µM) of the same compound?
**A.** 0.371

**Q.** What about the relative viability ([16]; first compound 0.001 µM) of the same compound?
**A.** 0.726

**Q.** And the relative viability ([16]; first compound 0.003162 µM)?
**A.** 1.24

**Q.** What about the relative viability ([16]; first compound 0.01 µM) of the same compound?
**A.** 1.22

**Q.** What about the relative viability ([16]; first compound 0.03162 µM) of the same compound?
**A.** 0.858

**Q.** What about the relative viability ([16]; first compound 0.1 µM) of the same compound?
**A.** 0.907

**Q.** What about the relative viability ([17]; first compound 0.001 µM) of the same compound?
**A.** 1.17

**Q.** What about the relative viability ([17]; first compound 0.003162 µM) of the same compound?
**A.** 1.25

**Q.** What about the relative viability ([17]; first compound 0.01 µM) of the same compound?
**A.** 1.11

**Q.** What about the relative viability ([17]; first compound 0.03162 µM) of the same compound?
**A.** 1.15

**Q.** And the relative viability ([17]; first compound 0.1 µM)?
**A.** 0.859

**Q.** And the relative viability ([18]; first compound 0.001 µM)?
**A.** 0.917

**Q.** And the relative viability ([18]; first compound 0.003162 µM)?
**A.** 1.05

**Q.** And the relative viability ([18]; first compound 0.01 µM)?
**A.** 1.07

**Q.** And the relative viability ([18]; first compound 0.03162 µM)?
**A.** 0.956

**Q.** And the relative viability ([18]; first compound 0.1 µM)?
**A.** 0.653

**Q.** What about the relative viability ([19]; first compound 0.001 µM) of the same compound?
**A.** 0.848

**Q.** And the relative viability ([19]; first compound 0.003162 µM)?
**A.** 0.88

**Q.** What about the relative viability ([19]; first compound 0.01 µM) of the same compound?
**A.** 0.975

**Q.** What about the relative viability ([19]; first compound 0.03162 µM) of the same compound?
**A.** 0.707

**Q.** What about the relative viability ([19]; first compound 0.1 µM) of the same compound?
**A.** 0.46

**Q.** And the relative viability ([20]; first compound 0.001 µM)?
**A.** 0.689

**Q.** What about the relative viability ([20]; first compound 0.03162 µM) of the same compound?
**A.** 0.627

**Q.** And the relative viability ([20]; first compound 0.1 µM)?
**A.** 0.866
